Reference: patent US4699903A, “Therapeutic use of tin diiododeuteroporphyrin” (The Rockefeller University, priority 1987, dated 1987)
Values joined by “and” are separate entries in the source; they are usually repeats but may differ in a detail not shown here. Identical values can stand only once. Like-named read-outs stand apart in the source and are kept apart here.

Assays:
[1] = Singlet and triplet lifetimes; format: physicochemical
Procedure: (3) Singlet and triplet lifetimes: The singlet lifetime of SnI2 DP was determined to be 23 psec (this is at the lower levels of instrument detection). The singlet lifetimes of SnPP and SnMP are 500-600 p sec. The triplet lifetime of SnI2 DP was determined to be 0.2 millisec. The triplet lifetimes of SnPP and SnMP are 0.5 and 2.5 milliseconds respectively.

[2] = molecular target: T1, heme oxygenase (Rattus norvegicus, UniProt P06762); test: Inhibition of heme oxygenase conversion of heme to bilirubin, rat spleen microsomes; format: biochemical; set-up: using rat spleen microsomes as the source of heme oxygenase; from tissue; host or cells: rat spleen microsomes; details: for inhibition constant compared with that of SnI2 DP: heme oxygenase; for Ki: rat spleen microsomes
T1 sequence (P06762 1-289): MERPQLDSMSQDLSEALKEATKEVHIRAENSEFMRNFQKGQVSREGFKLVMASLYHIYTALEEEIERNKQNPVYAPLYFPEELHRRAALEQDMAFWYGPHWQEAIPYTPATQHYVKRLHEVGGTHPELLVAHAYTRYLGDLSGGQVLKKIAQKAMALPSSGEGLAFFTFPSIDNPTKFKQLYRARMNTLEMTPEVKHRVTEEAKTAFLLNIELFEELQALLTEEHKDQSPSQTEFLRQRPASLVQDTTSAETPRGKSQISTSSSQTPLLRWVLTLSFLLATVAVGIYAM
Procedure: In an initial study using rat spleen microsomes as the source of heme oxygenase the ability of SnI2 DP to inhibit the activity of heme oxygenase to convert heme to bilirubin was determined.
Km=rate constant for heme oxygenase
KmAPP =rate constant for heme oxygenase in the presence of SnI2 DP

[3] = tested on: heme oxygenase; test: Tissue heme oxygenase activity in newborn rats after SnI2 DP; format: in vivo, rat
Procedure: (§1) The in vivo ability of SnI2 DP to reduce serum bilirubin was established by studies in neonatal rats. The studies were conducted with four separate litters each containing ten neonates.
(§2) To prepare the solution for parenteral administration, SnI2 DP was taken up in a small volume of 0.2N sodium hydroxide, adjusted to pH 7.4 with 1N hydrochloric acid and made up to final volume with 0.9% sodium chloride. The solution as prepared and used contained a final SnI2 DP concentration of 10 μmol/kg body weight in each 0.1 ml injection volume. Control neonates received 0.1 ml of 0.9% sodium chloride at birth. One group of animals was sacrificed at 24 hours which is normally the peak of bilirubin for neonate rates. The total bilirubin in serum was estimated by the method of Roth, Clin. Chem. Acta, 17 487-492, 1967.
(§3) Heme oxygenase was determined as described by Drummond and Kappas Proc. Natl. Acad. Sci. USA 78: 6466(1981).

[4] = molecular target: T1, heme oxygenase; test: Tissue heme oxygenase activity after simultaneous administration of heme; format: in vivo; set-up: from tissue; details: heme 6.1 μmol/kg b.w. simultaneously, n = 4
Procedure: (§4) Simultaneous intraveous (IV) administration of heme (6.1 μmol/kg b.w.) and SnI2 DP was examined in four pairs of bile duct cannulated adult male rats. The effect of simultaneous administration of heme and SnI2 DP on heme levels in bile and tissue heme oxygenase activity are shown in Tables V and VI respectively.
(§5) Each group was administered heme (6.1 μmol/kg b.w.) simultaneously with either SnI2 DP or saline.

[5] = tested on: serum bilirubin; test: Serum bilirubin levels in newborn rats; format: in vivo, rat
Procedure: as §1, §2

[6] = Fluorescence characteristics in pyridine; format: physicochemical
Procedure: (2) Fluorescence characteristics: A 1 μM solution of SnI2 DP in pyridine was excited at 400 nm and 2 emission peaks were detected at 578 nm and 635 nm. The measurable fluorescence represents less than 5% of that found for SnPP and SnMP.

[7] = tested on: serum bilirubin; test: Serum bilirubin in ALA-treated hyperbilirubinemia, 7-day old suckling rats; format: in vivo, rat; details: ALA 50 μmmol/100 g at 0, 4 and 8 hours, sacrificed 16 hours after last ALA
Procedure: (§6) The next study established the ability of SnI2 DP to inhibit the ability of γ-aminolevulinic acid (ALA) to produce jaundice. This study of the efficacy of SnI2 DP to control hyperbilirubinemia thereby preventing the jaundice which develops in rats treated 7 days after birth with ALA is described by Drummond and Kappas, J. Clin. Invest. 74, 142-149 (1984). In the test, ALA (50 μmmol/100 g body weight) is administered to suckling 7 day old rats at 0, 4 and 8 hours, the animals sacrificed 16 hours after the last administration of ALA, and the serum biliribin measured.

[8] = tested on: heme oxygenase; test: Tissue heme oxygenase activity after simultaneous administration of heme; format: in vivo, rat; details: heme 6.1 μmol/kg b.w. simultaneously, n = 4
Procedure: as §4, §5

[9] = tested on: heme oxygenase; test: Hepatic heme oxygenase activity in ALA-treated 7-day old suckling rats; format: in vivo, rat; details: ALA 50 μmmol/100 g at 0, 4 and 8 hours, sacrificed 16 hours after last ALA
Procedure: as §6, §3

[10] = tested on: heme; test: Heme excretion in bile after simultaneous i.v. heme and SnI2 DP, bile duct cannulated adult male rats; format: in vivo, rat; details: heme 6.1 μmol/kg b.w. i.v. simultaneously
Procedure: as §4, §5

[11] = tested on: heme oxygenase; test: Tissue heme oxygenase activity in bile duct cannulated adult rats; format: in vivo, rat; details: i.v. 10 μmol/kg b.w., n=5
Procedure: (§7) In the next in vivo test designed to measure the decrease in bilirubin production, SnI2 DP was administered intravenously to five adult rats, 12-15 weeks old at a dose of 10 μmol/kg body weight. Five control rats were administered saline. The bile duct was cannulated and the bile fluid analyzed for bilirubin content.
(§8) In addition, the activity of hepatic, renal and splenic heme oxygenase was decreased in bile duct cannulated animals administered SnI2 DP.
(§9) SnI2 DP administered i.v. at a dose of 10 μmol/kg b.w.
(§10) When compared to saline treated controls, n=5.

[12] = tested on: biliary bilirubin; test: Drop in biliary bilirubin production in bile duct cannulated adult rats; format: in vivo, rat
Procedure: as §7

[13] = molecular target: T1, heme oxygenase; test: Tissue heme oxygenase activity in bile duct cannulated adult rats; format: in vivo; set-up: from tissue; details: i.v. 10 μmol/kg b.w., n=5
Procedure: as §7, §8, §9, §10

## C=Cc1c2[n-]c(c1C)/C=c1\[n-]/c(c(C)c1C=C)=C\c1[n-]c(c(CCC(=O)O)c1C)C=c1[n-]/c(c(C)c1CCC(=O)O)=C\2.[Sn+4] [SnPP, tin protoporphyrin IX]
[1]
  singlet lifetime: 500-600 psec
  triplet lifetime: 0.5 millisec
[2]
  inhibition constant compared with that of SnI2 DP: approximately the same

## tin diiododeuteroporphyrin [SnI2 DP]
[3]; neonates, repeated test, 48 hours after birth
  kidney heme oxygenase activity: 0.88 nmol/mg p h
[3]; newborn rats, 10 μmol/kg at birth, 24 hours, kidney bulked
  Heme Oxygenase Kidney: 1.13 nmol/mg p h
[3]; newborn rats, 10 μmol/kg at birth, 24 hours, spleen bulked
  Heme Oxygenase Spleen: 3.74 nmol/mg p h
[3]; newborn rats, 10 μmol/kg at birth, sacrificed at 24 hours
  Heme Oxygenase Liver: 8.07 ± 0.06 nmol/mg p h
[1]
  singlet lifetime: 23 psec
  triplet lifetime: 0.2 millisec
[1]; inferred from fluorescence and triplet lifetime
  photosensitizing potential compared with SnPP and SnMP: less photosensitizing potential
[4]
  Heme Oxygenase Spleen: 8.15 ± 0.52 nmol/mg p h
[5]; newborn rats, 10 μmol/kg at birth, 24 hours
  Serum Bilirubin: 0.34 ± 0.02 mg/dL
[5]; rat neonates
  activity in preventing serum bilirubin increase, as % of that of SnMP: about 10%
  activity in preventing serum bilirubin increase, compared with SnPP: roughly the same
[6]
  fluorescence quenched by comparison with SnPP: 95%
[6]; 1 μM solution in pyridine, excited at 400 nm
  measurable fluorescence as % of that found for SnPP and SnMP: less than 5%
[7]
  Serum Bilirubin: 0.54 ± 0.02 mg/dL
[8]
  Heme Oxygenase Kidney: 1.04 ± 0.22 nmol/mg p h
  Heme Oxygenase Liver: 5.03 ± 0.72 nmol/mg p h
[9]
  Heme Oxygenase Liver: 8.29 ± 0.48 nmol/mg p h
[10]; average of 4 experiments
  Heme excreted in bile (% of administered dose), Average: 44.9 ± 4.79 % of administered dose
[10]; single experiments 1-4
  Heme excreted in bile (% of administered dose): 51.8 % of administered dose and 48.8 % of administered dose and 48.2 % of administered dose and 30.7 % of administered dose
[11]
  Heme Oxygenase Kidney: 0.45 ± 0.03 nmol/mg p h
  Heme Oxygenase Liver: 2.06 ± 0.75 nmol/mg p h
[2]; Lineweaver Burke plots, average of four determinations, read-out: inhibition constant Ki
  Ki: 69 ± 7 nM
[2]; four separate determinations, read-out: Ki, separate determinations
  Ki: 57 nM and 88 nM and 62 nM and 70 nM
[12]; adult rats, 10 μmol/kg i.v., bile duct cannulated, single experiments 1-5
  Drop in biliary bilirubin production, % decrease: 60% and 35% and 47% and 44% and 48%
[12]; adult rats, 10 μmol/kg i.v., p<0.01
  average difference between treated and control decline in biliary bilirubin: 21%
[12]; rats
  ability to lower heme oxygenase activity, serum and bile bilirubin levels, compared with SnMP: not as effective as SnMP
[13]
  Heme Oxygenase Spleen: 5.37 ± 1.09 nmol/mg p h

## NCC(=O)CCC(=O)O [ALA, γ-aminolevulinic acid, reference compound]
[7]
  Serum Bilirubin: 0.99 ± 0.06 mg/dL
[9]
  Heme Oxygenase Liver: 11.29 ± 0.33 nmol/mg p h

## tin mesoporphyrin [SnMP]
[1]
  singlet lifetime: 500-600 psec
  triplet lifetime: 2.5 millisec
[2]
  inhibition constant compared with that of SnI2 DP: approximately the same
